The text below walks through data of ChEMBL document CHEMBL4138234, “Aegeline inspired synthesis of novel amino alcohol and thiazolidinedione hybrids with antiadipogenic activity in 3T3-L1 cells” (Eur J Med Chem, 2018).

Data set [1] has as its system 3T3-L1. In words: Cytotoxicity against mouse 3T3L1 cells. Format: cell-based.
Data set [2] has as its system 3T3-L1. The experiment in a line: Anti-adipogenic activity in mouse 3T3L1 preadipocytes assessed as reduction in lipid accumulation at 20 uM by Oil Red O absorbance assay. Type of data set: functional, cell-based.
The test system of data set [3] is 3T3-L1. In words: Anti-adipogenic activity in mouse 3T3L1 cells assessed as reduction in lipid accumulation at 20 uM incubated for 2 to 6 days by Oil Red O absorbance method. Format: functional, cell-based.
Data set [4] has as its system 3T3-L1. The experiment in a line: Anti-adipogenic activity in mouse 3T3L1 cells assessed as reduction in lipid accumulation at 20 uM incubated for 2 to 4 days by Oil Red O staining based microscopic method. Type of data set: functional, cell-based.
Data set [5] deals with 3T3-L1. In words: Anti-adipogenic activity in mouse 3T3L1 cells assessed as reduction in lipid accumulation at 20 uM incubated for 4 to 6 days by Oil Red O absorbance method. Format: functional, cell-based.
For data set [6], the species on record is Mus musculus. In words: Inhibition of PPARgamma/CEBPalpha-mediated increase in aP2 protein expression in mouse 3T3L1 preadipocytes at 20 uM up to 6 days by Western blot analysis. Type of data set: cell-based.
For data set [7], the target named is CCAAT/enhancer-binding protein alpha (Mus musculus) (UniProt P53566). The experiment in a line: Inhibition of C/EBPalpha protein expression in mouse 3T3L1 preadipocytes at 20 uM up to 6 days by Western blot analysis. Format: cell-based. Background: Immunoblotting shows a protein as a band on a membrane.
Sequence of CCAAT/enhancer-binding protein alpha (Mus musculus) (P53566 whole entry): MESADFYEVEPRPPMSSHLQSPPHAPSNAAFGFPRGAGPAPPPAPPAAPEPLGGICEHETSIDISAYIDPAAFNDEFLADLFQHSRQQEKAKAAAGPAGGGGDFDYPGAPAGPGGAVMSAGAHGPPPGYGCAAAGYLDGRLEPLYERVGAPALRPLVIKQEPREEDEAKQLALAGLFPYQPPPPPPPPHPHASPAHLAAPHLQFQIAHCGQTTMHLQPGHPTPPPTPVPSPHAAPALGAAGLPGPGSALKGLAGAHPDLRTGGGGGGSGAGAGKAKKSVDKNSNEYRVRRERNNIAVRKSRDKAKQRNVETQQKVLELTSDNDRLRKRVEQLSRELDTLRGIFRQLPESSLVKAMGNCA
Data set [8] deals with 3T3-L1. The experiment in a line: Anti-adipogenic activity in mouse 3T3L1 cells assessed as reduction in lipid accumulation at 20 uM incubated for 4 to 6 days by Oil Red O staining based microscopic method. Type of data set: functional, cell-based.
For data set [9], the system named is 3T3-L1. In words: Cell cycle arrest in mouse 3T3L1 cells assessed as accumulation at S phase at 10 uM after 24 hrs by propidium iodide-staining based flow cytometry (reference value: 22%). Format: functional. (In general: Flow cytometry measures light scatter and fluorescence of single cells or particles in a stream.)
The subject of data set [10] is 3T3-L1. In words: Anti-adipogenic activity in mouse 3T3L1 preadipocytes assessed as reduction in MDI induced-lipid accumulation at 10 uM after 20 mins by Oil Red O staining-based assay. Format: functional, cell-based.
The species named for data set [11] is Mus musculus. The experiment in a line: Inhibition of PPARgamma/CEBPalpha-mediated increase in FAS protein expression in mouse 3T3L1 preadipocytes at 20 uM up to 6 days by Western blot analysis. Type of data set: cell-based.
The species named for data set [12] is Mus musculus. In words: Inhibition of PPARgamma/CEBPalpha-mediated increase in FAS mRNA levels in mouse 3T3L1 preadipocytes at 20 uM after 6 days by RT-PCR analysis. Format: cell-based.
Data set [13] deals with 3T3-L1. The experiment in a line: Anti-adipogenic activity in mouse 3T3L1 preadipocytes in differentiation media assessed as reduction in lipid accumulation by Oil Red O staining microscopic method. Format: functional, cell-based.
For data set [14], the target named is T1, Peroxisome proliferator-activated receptor gamma (Mus musculus) (UniProt P37238).
T1 sequence (whole entry): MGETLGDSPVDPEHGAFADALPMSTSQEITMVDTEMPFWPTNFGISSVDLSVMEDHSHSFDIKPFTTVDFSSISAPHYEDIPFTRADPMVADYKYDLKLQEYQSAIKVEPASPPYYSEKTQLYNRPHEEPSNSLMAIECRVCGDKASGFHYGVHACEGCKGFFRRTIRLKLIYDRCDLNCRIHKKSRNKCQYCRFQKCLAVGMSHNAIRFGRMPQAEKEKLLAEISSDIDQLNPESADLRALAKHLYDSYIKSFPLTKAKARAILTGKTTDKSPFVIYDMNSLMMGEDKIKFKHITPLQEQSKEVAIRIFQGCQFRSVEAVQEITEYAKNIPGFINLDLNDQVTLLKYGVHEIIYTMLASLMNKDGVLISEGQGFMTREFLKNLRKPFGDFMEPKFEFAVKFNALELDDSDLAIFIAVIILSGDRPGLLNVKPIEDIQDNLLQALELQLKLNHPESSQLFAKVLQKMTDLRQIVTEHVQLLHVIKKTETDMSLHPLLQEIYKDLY
In words: Inhibition of PPARgamma protein expression in mouse 3T3L1 preadipocytes at 20 uM up to 6 days by Western blot analysis. Type of data set: cell-based.

In data set [15] the target is CCAAT/enhancer-binding protein alpha (Mus musculus) (UniProt P53566). The experiment in a line: Inhibition of C/EBPalpha mRNA levels in mouse 3T3L1 preadipocytes at 20 uM after 6 days by RT-PCR analysis. Type of data set: cell-based.
Data set [16] concerns 3T3-L1. In words: Cell cycle arrest in mouse 3T3L1 cells assessed as accumulation at S phase at 20 uM after 24 hrs by propidium iodide-staining based flow cytometry (reference value: 22%). Format: functional.
Data set [17] concerns 3T3-L1. The experiment in a line: Anti-adipogenic activity in mouse 3T3L1 cells assessed as reduction in lipid accumulation at 20 uM incubated for 2 to 4 days by Oil Red O absorbance method. Format: functional, cell-based.
The subject of data set [18] is 3T3-L1. The experiment in a line: Anti-adipogenic activity in mouse 3T3L1 cells assessed as reduction in lipid accumulation at 20 uM incubated up to 6 days by Oil Red O absorbance assay. Type of data set: functional, cell-based.
The target in data set [19] is T1, Peroxisome proliferator-activated receptor gamma (Mus musculus). In words: Inhibition of PPARgamma mRNA levels in mouse 3T3L1 preadipocytes at 20 uM after 6 days by RT-PCR analysis. Format: cell-based.
Data set [20] relates to 3T3-L1. In words: Cell cycle arrest in mouse 3T3L1 cells assessed as accumulation at S phase at 10 to 20 uM after 16 hrs by propidium iodide-staining based flow cytometry. Format: functional.
Data set [21] has as its system 3T3-L1. The experiment in a line: Anti-adipogenic activity in mouse 3T3L1 preadipocytes in differentiation medium assessed as reduction in lipid accumulation at 20 uM by Oil Red O absorbance assay relative to control. Also on record: scale not given: the % may be the effect or the level left. Type of data set: functional.
Data set [22] relates to 3T3-L1. The experiment in a line: Anti-adipogenic activity in mouse 3T3L1 cells assessed as reduction in lipid accumulation at 20 uM incubated for 2 to 6 days by Oil Red O staining based microscopic method. Type of data set: functional, cell-based.
Data set [23] is filed under the species Mus musculus. The experiment in a line: Inhibition of PPARgamma/CEBPalpha-mediated increase in aP2 mRNA levels in mouse 3T3L1 preadipocytes at 20 uM after 6 days by RT-PCR analysis. Format: cell-based.
Data set [24] has as its system 3T3-L1. In words: Anti-adipogenic activity in mouse 3T3L1 cells assessed as reduction in lipid accumulation at 20 uM incubated up to 6 days by Oil Red O staining based microscopic method. Format: functional, cell-based.

The source made the active and inactive calls. No cut-off for these calls is given here. Bounds are passed on as bounds.

`CC(NCC(O)COc1ccc(/C=C2\SC(=O)N(Cc3ccccc3Br)C2=O)cc1)c1ccccc1` (centres undefined): in the data set with 3T3-L1 [1], the Activity entry is on record as “Toxic”.
For the compound `O=C1S/C(=C\c2ccc(OCC(O)CNCc3cccnc3)cc2)C(=O)N1Cc1ccccc1Br` (centres undefined), the result with 3T3-L1 [2] was inactive.
As to `CC(NCC(O)COc1ccc(/C=C2\SC(=O)N(Cc3ccccc3)C2=O)cc1)c1ccccc1` (centres undefined), the Activity entry in the data set with 3T3-L1 [1] is “Toxic”.
For `COc1ccc(C(=O)OCC(O)COc2ccc(/C=C3\SC(=O)NC3=O)cc2)c(OC)c1` (centres undefined), in the data set on 3T3-L1 [2], the result was inactive.
As to `O=C1S/C(=C\c2ccc(OCC(O)CNCc3ccccn3)cc2)C(=O)N1Cc1ccccc1` (centres undefined), the outcome in the data set with 3T3-L1 [3], in the data set on 3T3-L1 [4], in the data set on 3T3-L1 [5], in the data set on 3T3-L1 [2], in the data set on 3T3-L1 [8] and with 3T3-L1 [10] was Active. The outcome in the data set on 3T3-L1 [17], in the data set on 3T3-L1 [18], in the data set with 3T3-L1 [22] and in the data set on 3T3-L1 [24] was Active. The inhibition result (in the data set filed under Mus musculus [6]; in data set [7]; in the data set filed under Mus musculus [11]; in the data set filed under Mus musculus [12]; in data set [14]; in [15]) was “Active” throughout. Further, the inhibition result (in data set [19]; in the data set listed under Mus musculus [23]) was “Active” in each case. Moreover, the Activity in the data set with 3T3-L1 [9] is 37%; in the data set on 3T3-L1 [13], “Dose-dependent effect”; in the data set with 3T3-L1 [16], 36%; with 3T3-L1 [21] it was more than 50%. The outcome in the data set on 3T3-L1 [20] was inactive.
Regarding `O=C1S/C(=C\c2ccc(OCC(O)CNCc3cccnc3)cc2)C(=O)N1Cc1ccccc1` (centres undefined), in the data set with 3T3-L1 [2], the result was inactive.
As to `O=C1S/C(=C\c2ccc(OCC(O)CNCc3ccccn3)cc2)C(=O)N1Cc1ccc(F)cc1` (centres undefined), the Activity result with 3T3-L1 [1] was “Toxic”.
With `O=C1NC(=O)/C(=C/c2ccc(OCC(O)COC(=O)c3cccnc3)cc2)S1` (centres undefined), the result with 3T3-L1 [2] was inactive.
Still for that read-out and setting: in the case of `O=C1S/C(=C\c2ccc(OCC(O)CNCc3cccnc3)cc2)C(=O)N1Cc1ccc(F)cc1` (centres undefined) it was “inactive”; in that of `O=C1NC(=O)/C(=C/c2ccc(OCC(O)COC(=O)c3ccc(Cl)nc3)cc2)S1` (centres undefined), “inactive”.
Same read-out and setting: as for `O=C(Cc1ccc(Cl)cc1)OCC(O)COc1ccc(/C=C2\SC(=O)NC2=O)cc1` (centres undefined), the entry is “inactive”.
Regarding `O=C1S/C(=C\c2ccc(OCC(O)CNCc3ccccn3)cc2)C(=O)N1Cc1ccccc1Br` (centres undefined), the outcome in the data set with 3T3-L1 [2] was Active.
